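Cultured in 96-well plates, cells were exposed to test compound for 48 hours across five concentrations. The concentration for 50% growth inhibition is given as GI50.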 Active and inactive are the calls of the source. Rule as the data show it: active = GI50 up to about 1.1 µM and inactive = higher. Bounds are passed on as bounds.

Test systems include CCRF-CEM; U-251; TK-10; NCI-H226; RXF 393; HOP-62; KM12; EKVX; UO-31; OVCAR-3; SK-MEL-2; CAKI-1; OVCAR-8; OVCAR-5; SN12C; SNB-75; M19-MEL; KM-20L2.
Holding throughout (assay): inhibition of tumour cell growth, NCI panel, 48 h

`COc1ccccc1/C=C/c1c(N)ncnc1Nc1cccc(Cl)c1`: the GI50 in the assay on CCRF-CEM is 0.16 µM (active); in the assay on U-251 it was 15.7 µM (inactive); in the assay on TK-10, 14.5 µM (inactive); in the assay on NCI-H226, 17.4 µM (inactive); in the assay with RXF 393, 16 µM (inactive); in the assay on HOP-62, 19.4 µM (inactive). The GI50 in the assay on KM12 was 36.5 µM (inactive); in the assay with EKVX, 16.7 µM (inactive); in the assay with UO-31 it was 20.6 µM (inactive); with OVCAR-3 it was 25.2 µM (inactive); with SK-MEL-2, 18.6 µM (inactive); in the assay on CAKI-1, 20.9 µM (inactive). For the same compound, the GI50 was 25.4 µM (inactive) in the assay on OVCAR-8, 31.8 µM (inactive) with OVCAR-5, 13.5 µM (inactive) with SN12C and 9.53 µM (inactive) in the assay with SNB-75.
For the compound `C/C=C(/C)C(=O)O[C@@H]1CCN2CC[C@H](COC(=O)/C(=C/C)CO)C12` (stereo not given in full), the GI50 in the assay on CCRF-CEM was 37.7 µM (inactive); in the assay on U-251, > 100 µM (inactive); with TK-10, > 100 µM (inactive); in the assay on NCI-H226, > 100 µM (inactive); in the assay on RXF 393 it was > 44.9 µM (inactive); in the assay with HOP-62, > 100 µM (inactive). For the same compound, the GI50 in the assay with KM12 is > 100 µM (inactive); in the assay with EKVX it was > 100 µM (inactive); with UO-31, > 87.7 µM (inactive); in the assay on OVCAR-3, > 100 µM (inactive); with SK-MEL-2, 41.4 µM (inactive); with CAKI-1, > 100 µM (inactive). Further, the GI50 in the assay on OVCAR-8 is > 100 µM (inactive); with OVCAR-5, > 100 µM (inactive); in the assay on SN12C, > 100 µM (inactive); in the assay with SNB-75, > 95.3 µM (inactive).
For the compound `CC(=O)NC(CS/N=N/c1[nH]cnc1C(N)=O)C(=O)O` (stereo not given), the GI50 was 2.14 µM (inactive) with CCRF-CEM; > 64.9 µM (inactive) in the assay on U-251; 1.75 µM (inactive) in the assay on TK-10; 2.51 µM (inactive) in the assay on NCI-H226; > 100 µM (inactive) in the assay on RXF 393; 35.9 µM (inactive) in the assay with HOP-62. Moreover, the GI50 in the assay on KM12 was 6.71 µM (inactive); in the assay on EKVX it was 54.5 µM (inactive); in the assay on UO-31, 2.82 µM (inactive); with OVCAR-3, 10 µM (inactive); in the assay with SK-MEL-2, 2.42 µM (inactive); with CAKI-1, 2.55 µM (inactive). Further, the GI50 in the assay with OVCAR-8 is 2.06 µM (inactive); with OVCAR-5 it was > 76.2 µM (inactive); with SN12C it was 3.21 µM (inactive); with SNB-75 it was 16.9 µM (inactive).
`COC(=O)[C@@H]1C=C[C@H](OC2OC(COC(C)=O)C(OC(C)=O)C(OC(C)=O)C2OC(C)=O)n2c(=O)c3ccccc3c(=O)n21` (stereo not given in full): the GI50 was 4.14 µM (inactive) in the assay with CCRF-CEM; 12 µM (inactive) in the assay on U-251; 2.91 µM (inactive) in the assay with TK-10; 19.7 µM (inactive) in the assay on NCI-H226; 6.05 µM (inactive) in the assay with RXF 393; 17.9 µM (inactive) with HOP-62. Besides, the GI50 was 10.7 µM (inactive) in the assay on KM12; 16.5 µM (inactive) in the assay with EKVX; 14.4 µM (inactive) with UO-31; 10.4 µM (inactive) in the assay with OVCAR-3; 9.16 µM (inactive) with SK-MEL-2; 3.45 µM (inactive) in the assay with CAKI-1. The GI50 in the assay on OVCAR-8 is 16.5 µM (inactive); with OVCAR-5, 16 µM (inactive); in the assay on SN12C, > 10 µM (inactive); in the assay with SNB-75, 6.71 µM (inactive).
Consider `Cc1cc(C)nc(NS(=O)(=O)c2ccc(NNc3c4ccccc4nc4c(C(=O)Nc5ccc(S(N)(=O)=O)cc5)cccc34)cc2)n1`, for which the GI50 in the assay on CCRF-CEM was 20.2 µM (inactive); in the assay with U-251, 14.1 µM (inactive); in the assay with TK-10, 69.2 µM (inactive); in the assay on NCI-H226, 32 µM (inactive); in the assay with RXF 393, 40.1 µM (inactive); in the assay on HOP-62, 33.4 µM (inactive). Also, the GI50 with KM12 was 34 µM (inactive); in the assay on EKVX it was 45.2 µM (inactive); in the assay with UO-31 it was 45.7 µM (inactive); with OVCAR-3, 25.9 µM (inactive); in the assay on SK-MEL-2, 12.8 µM (inactive); in the assay with CAKI-1, 50.1 µM (inactive). Also, the GI50 is 34.4 µM (inactive) in the assay on OVCAR-8, 31.1 µM (inactive) with OVCAR-5, 29.9 µM (inactive) in the assay with SN12C and 18.6 µM (inactive) with SNB-75.
`CN(C)/C=N/n1c2ccccc2c2ccccc21`: the GI50 with CCRF-CEM, in the assay with U-251, in the assay with TK-10, in the assay on NCI-H226, in the assay on RXF 393 and in the assay with HOP-62 was > 100 µM (inactive) in each case. In addition, the GI50 with KM12 is > 100 µM (inactive); in the assay on EKVX, > 100 µM (inactive); in the assay with UO-31, > 100 µM (inactive); in the assay on OVCAR-3, > 100 µM (inactive); in the assay with SK-MEL-2 it was > 100 µM (inactive); in the assay on CAKI-1, 3.64 µM (inactive). Moreover, the GI50 with OVCAR-8 is > 100 µM (inactive); with OVCAR-5, > 100 µM (inactive); in the assay with SN12C, > 100 µM (inactive); in the assay on SNB-75, 71.1 µM (inactive).
As to `NC(=O)C1C(=O)Oc2cccnc21` (stereo not given), the GI50 in the assay on CCRF-CEM was > 100 µM (inactive); with U-251 it was > 100 µM (inactive); in the assay with TK-10, > 100 µM (inactive); in the assay with NCI-H226, 96.2 µM (inactive); with RXF 393, > 100 µM (inactive); with HOP-62, > 100 µM (inactive). Also, the GI50 with KM12 was > 100 µM (inactive); in the assay with EKVX, > 100 µM (inactive); in the assay with UO-31, 99.8 µM (inactive); in the assay on OVCAR-3, > 100 µM (inactive); in the assay with OVCAR-8 it was > 100 µM (inactive); with M19-MEL, > 100 µM (inactive). Also, the results for the GI50 with SN12C, in the assay on KM-20L2 and in the assay with SNB-75 were > 100 µM (inactive), > 100 µM (inactive) and 17.8 µM (inactive), respectively.
For the compound `Cc1ccc2c(c1)C1(C)OC(CC(N)C1O)O2` (stereo not given), the GI50 with CCRF-CEM, in the assay on U-251, in the assay on TK-10, in the assay with NCI-H226, in the assay on RXF 393 and in the assay with HOP-62 was > 100 µM (inactive) each time. Further, the GI50 with KM12, in the assay on EKVX, with UO-31, in the assay with OVCAR-3, in the assay with SK-MEL-2 and in the assay with OVCAR-8 was > 100 µM (inactive) throughout. Moreover, the values for the GI50 in the assay on M19-MEL, with SN12C and with SNB-75 were > 100 µM (inactive), > 100 µM (inactive) and 29.8 µM (inactive), respectively.
`CCOC(=O)c1cc2c(OC(C)=O)ccc(OC(C)=O)c2s1`: the GI50 with CCRF-CEM was 2.16 µM (inactive); in the assay on U-251, 2.97 µM (inactive); in the assay on TK-10, 6.82 µM (inactive); with NCI-H226 it was 12.9 µM (inactive); in the assay on RXF 393, 1.56 µM (inactive); in the assay on HOP-62 it was 10.3 µM (inactive). For the same compound, the GI50 in the assay with KM12 is 4.52 µM (inactive); in the assay with EKVX it was 2.82 µM (inactive); with UO-31, 1.43 µM (inactive); with OVCAR-3, 1.61 µM (inactive); in the assay with SK-MEL-2, 2.62 µM (inactive); with CAKI-1, 4.35 µM (inactive). Besides, the GI50 was 1.66 µM (inactive) in the assay with OVCAR-8, 6.19 µM (inactive) with OVCAR-5, 2.25 µM (inactive) in the assay on SN12C and 2.07 µM (inactive) in the assay on SNB-75.
`C=C(C)C(=O)OC1C[C@H](COC(C)=O)C2CC=C(C)C2C2OC(=O)C(=C)[C@H]12` (stereo not given in full): the GI50 with CCRF-CEM was 1.64 µM (inactive); with U-251 it was 8.67 µM (inactive); with TK-10 it was 6.76 µM (inactive); with NCI-H226, 17.3 µM (inactive); in the assay on RXF 393, 3.81 µM (inactive); in the assay with HOP-62, 13.3 µM (inactive). The GI50 in the assay with KM12 is 11.7 µM (inactive); with EKVX it was 9.82 µM (inactive); in the assay on UO-31 it was 2.2 µM (inactive); in the assay on OVCAR-3, 2.19 µM (inactive); in the assay on SK-MEL-2 it was 2.82 µM (inactive); in the assay on CAKI-1 it was 2.81 µM (inactive). Further, the GI50 is 5.31 µM (inactive) in the assay with OVCAR-8, 9.77 µM (inactive) with OVCAR-5, 4.97 µM (inactive) with SN12C and 10.8 µM (inactive) in the assay on SNB-75.
Turning to `CC1=NN(c2ccccc2)C(=O)/C1=C\c1c(C)[nH]n(-c2ccccc2)c1=O`, the GI50 in the assay on CCRF-CEM is 75.9 µM (inactive); in the assay on U-251, > 100 µM (inactive); in the assay with TK-10, > 100 µM (inactive); in the assay with NCI-H226, > 100 µM (inactive); with RXF 393, 35.1 µM (inactive); in the assay with HOP-62, > 100 µM (inactive). Further, the GI50 was > 100 µM (inactive) in the assay with KM12; > 100 µM (inactive) in the assay on EKVX; > 100 µM (inactive) in the assay on UO-31; 54.5 µM (inactive) with OVCAR-3; > 100 µM (inactive) in the assay with SK-MEL-2; > 100 µM (inactive) in the assay on CAKI-1. Moreover, the GI50 in the assay on OVCAR-8, in the assay on OVCAR-5, with SN12C and with SNB-75 was > 100 µM (inactive) in each case.
Consider `CO[C@H]1[C@@H](O)[C@@H](O)O[C@@H](O[C@H]2CC[C@@]3(C)[C@H](CC[C@@H]4[C@@H]3[C@H](O)C[C@]3(C)[C@@H](C5=CC(=O)OC5)CC[C@]43O)C2)[C@@H]1O`, for which the GI50 in the assay on CCRF-CEM is 0.23 µM (active); with U-251, 0.305 µM (active); in the assay with TK-10, 0.187 µM (active); with NCI-H226 it was 0.69 µM (active); in the assay on RXF 393 it was 0.056 µM (active); with HOP-62 it was 0.124 µM (active). Moreover, the GI50 with KM12 was 0.698 µM (active); in the assay on EKVX it was 0.151 µM (active); in the assay on UO-31 it was 0.163 µM (active); in the assay with OVCAR-3, 0.112 µM (active); in the assay with SK-MEL-2, 0.299 µM (active); in the assay with CAKI-1, 0.111 µM (active). The GI50 is 0.33 µM (active) with OVCAR-8, 0.601 µM (active) in the assay on OVCAR-5, 0.064 µM (active) in the assay on SN12C and 0.354 µM (active) with SNB-75.

(Values after ChEMBL document CHEMBL1201862, “PubChem BioAssay data set” (2004).)
